Literature values, collected in article PMC6376154 (International Journal for Parasitology: Drugs and Drug …, 2019).
Read-outs that look alike come from different tables or passages of the source.

Tested on: P. falciparum 3D7 asexual blood stage
Details: cited from earlier work
[1] = MMV Malaria Box sheet, ref MMV data sheets
[2] = MMV Malaria Box sheet, ref MMV data sheets, read-out: EC50_nM
[3] = source GSK, ref ChEMBL_NTD, read-out: CHEMBL EC50
[4] = MMV Malaria Box data sheet, ref MMV data sheets
[5] = MMV Malaria Box data sheet, ref MMV data sheets, read-out: EC50_nM
[6] = MMV Malaria Box data sheet (supplement mmc2.xls), ref MMV data sheet
[7] = MMV Malaria Box data sheet (supplement mmc2.xls), ref MMV data sheet, read-out: EC50_nM
[8] = value(s) per source (GSK, GNF, StJude), separated by semicolon, ref ChEMBL-NTD, read-out: CHEMBL EC50
[9] = ChEMBL-NTD value per source (GNF, GSK, StJude), several values in a cell follow the order of the sources, read-out: CHEMBL EC50
[10] = source GNF, ref ChEMBL_NTD, read-out: CHEMBL EC50

O=C(Nc1ccc(-c2nc3cc4ccccc4cc3[nH]2)cc1)c1cccc(Br)c1 [MMV019241]
percent_inh @ 5 uM [1]: 93% | EC50 [2]: 450 nM | EC50 [3]: 363 nM

COc1ccc(-n2ccnc2SCC(=O)Nc2cc(C)ccc2C)c(OC)c1 [MMV019258]
percent_inh @ 5 uM [4]: 95% | EC50 [5]: 170 nM | EC50 [3]: 205 nM

Cc1sc2ncnc(Sc3nc4ccccc4[nH]3)c2c1C [MMV019266]
percent_inh @ 5 uM [1]: 100% | EC50 [2]: 614 nM | EC50 [3]: 255 nM

Cn1c(=O)c2cc(C(=O)NCCCN3CCCCCC3)sc2c2ccccc21 [MMV019313]
percent_inh @ 5 uM [6]: 97% | EC50 [7]: 669 nM | EC50 [8]: 689 nM

CCC1(C)CC(CCNCc2ccccc2O)(c2ccc(C)cc2)CCO1 (centres unmarked) [MMV019406]
percent_inh @ 5 uM [4]: 97% | EC50 [5]: 142 nM | EC50 [3]: 38.8 nM

c1ccc2c(NCCCCCCNc3c4c(nc5ccccc35)CCCC4)c3c(nc2c1)CCCC3 [MMV019555]
percent_inh @ 5 uM [1]: 100% | EC50 [2]: 376 nM | EC50 [3]: 196 nM

COc1ccc(N2CCN(C(CNC(=O)C3CCCCC3)c3ccc4c(c3)OCO4)CC2)cc1 (centres unmarked) [MMV019662]
percent_inh @ 5 uM [6]: 97% | EC50 [7]: 1110 nM | EC50 [8]: 566 nM

O=C(Nc1ccc(N2CCN(Cc3ccccc3)CC2)cc1)c1cccs1 [MMV019670]
percent_inh @ 5 uM [6]: 59% | EC50 [7]: 1080 nM | EC50 [8]: 769 nM

COc1ccc(C2NCCc3c2[nH]c2ccccc32)cc1CN1CCN(c2ccc(F)cc2)CC1 (centres unmarked) [MMV019690]
percent_inh @ 5 uM [1]: 97% | EC50 [2]: 934 nM | EC50 [3]: 776 nM

O=C(Nc1ccc(N2CCCCC2)c(Cl)c1)c1ccc(Br)o1 [MMV019700]
percent_inh @ 5 uM [6]: 96% | EC50 [7]: 735 nM | EC50 [8]: 549 nM

Cc1[nH]c(-c2ccc(F)cc2)cc1C(=O)NC1CCN(Cc2ccccc2)CC1 [MMV019738]
percent_inh @ 5 uM [6]: 99% | EC50 [7]: 771 nM | EC50 [8]: 1130 nM

Cc1ccc(C)c(Cn2c(N3CCC(C(=O)NCc4cccs4)CC3)nc3ccccc32)c1 [MMV019741]
percent_inh @ 5 uM [1]: 97% | EC50 [2]: 1330 nM | EC50 [3]: 938 nM

Cc1ccc(Cl)cc1N1CCN(CCCNC(=O)C2CCN(c3nc4ccccc4[nH]3)CC2)CC1 [MMV019746]
percent_inh @ 5 uM [6]: 97% | EC50 [7]: 1330 nM | EC50 [8]: 895 nM

COc1ccc(C(=O)Nc2ccc3nc(N4CCCCC4)cc(C)c3c2)cc1OC [MMV019758]
percent_inh @ 5 uM [6]: 76% | EC50 [8]: 994 nM

COc1cccc(C(=O)Nc2ccc(-c3nc4ccccc4[nH]3)cc2)c1 [MMV019762]
percent_inh @ 5 uM [1]: 83% | EC50 [3]: 802 nM

Cc1cc(C)c2nc(N3CCC(C(=O)NCCCN4CCC(N5CCCCC5)CC4)CC3)sc2c1 [MMV019780]
percent_inh @ 5 uM [6]: 98% | EC50 [7]: 697 nM | EC50 [8]: 838 nM

Fc1ccc2[nH]c3c(NCCCN4CCOCC4)ncnc3c2c1 [MMV019871]
percent_inh @ 5 uM [4]: 98% | EC50 [5]: 345 nM | EC50 [3]: 714 nM

O=C(NC1CCN(Cc2ccccc2)CC1)c1cc(C(=O)NC2CCN(Cc3ccccc3)CC2)cc(C(=O)NC2CCN(Cc3ccccc3)CC2)c1 [MMV019881]
EC50 [9]: 1040 nM

Clc1cc(Br)ccc1-c1ccc(CNCC2CCNCC2)o1 [MMV019918]
percent_inh @ 5 uM [6]: 96% | EC50 [7]: 800 nM | EC50 [8]: 1510 nM

O=C(NCCCN1CCC(N2CCCCC2)CC1)C1=Cc2cc(Br)ccc2OC1 [MMV019995]
percent_inh @ 5 uM [1]: 99% | EC50 [2]: 563 nM | EC50 [3]: 853 nM

Cc1cc(N(C)C)nc(Nc2ccc(NC(=O)Nc3ccccc3)cc2)n1 [MMV020243]
EC50 [9]: 134 nM

O=C(NC1CCN(Cc2ccccc2)CC1)c1cc(-c2ccncc2)nc2ccc(Cl)cc12 [MMV020275]
percent_inh @ 5 uM [6]: 92% | EC50 [7]: 1020 nM | EC50 [8]: 920 nM

COc1ccc(-c2cn3c(C(=O)Nc4ccccc4Cl)c(-c4ccccc4)c4c3n2CCCC4)cc1 [MMV020403]
EC50 [9]: 792 nM

CCn1c(CN2CCN(Cc3ccccc3)CC2)nc2cc(NC(=O)c3cccs3)ccc21 [MMV020439]
percent_inh @ 5 uM [4]: 97% | EC50 [5]: 512 nM | EC50 [3]: 402 nM

O=C(NC1CCN(Cc2ccccc2)CC1)c1cc(-c2cccnc2)nc2ccc(Cl)cc12 [MMV020490]
percent_inh @ 5 uM [1]: 91% | EC50 [2]: 1010 nM | EC50 [3]: 759 nM

CC1CN(C(=O)c2sc3ccccc3c2Cl)CC(C)O1 (centres unmarked) [MMV020492]
percent_inh @ 5 uM [4]: 95% | EC50 [5]: 25.5 nM | EC50 [3]: 87.9 nM

CNCCCNc1ccnc2cc(Cl)ccc12 [MMV020500]
percent_inh @ 5 uM [4]: 98% | EC50 [5]: 82.2 nM | EC50 [3]: 62.4 nM

CN(C)CCCNCc1ccc(-c2ccc(F)c(Cl)c2)o1 [MMV020505]
percent_inh @ 5 uM [1]: 96% | EC50 [2]: 876 nM | EC50 [3]: 802 nM

CCN1CCN(Cc2ccc(NC(=O)c3cc4ccc5cccnc5c4[nH]3)cc2)CC1 [MMV020548]
percent_inh @ 5 uM [4]: 70% | EC50 [5]: 361 nM | EC50 [3]: 848 nM

CC1CCN(Cc2ccc(NC(=O)c3cc4ccc5cccnc5c4[nH]3)cc2)CC1 [MMV020549]
percent_inh @ 5 uM [4]: 97% | EC50 [5]: 274 nM | EC50 [3]: 779 nM

O=C(Nc1ccc(CN2CCOCC2)cc1)c1ccc(-c2cc(Cl)ccc2Cl)o1 [MMV020651]
percent_inh @ 5 uM [1]: 97% | EC50 [2]: 1940 nM | EC50 [3]: 613 nM

CCC(O)c1ccc(Br)cc1NC(=O)c1cccc(Cl)c1 (centres unmarked) [MMV020654]
percent_inh @ 5 uM [6]: 97% | EC50 [7]: 640 nM | EC50 [8]: 1020 nM

CC(=O)Nc1nnc(SCc2c(C)cc(C(C)(C)C)cc2C)s1 [MMV020700]
percent_inh @ 5 uM [6]: 96% | EC50 [7]: 871 nM | EC50 [8]: 704 nM

COc1cc(-c2nc(-c3ccccc3)c(-c3ccccc3)[nH]2)cc(OC)c1O [MMV020750]
EC50 [9]: 774 nM

Oc1ccccc1CNCC12CC3CC(CC(C3)C1)C2 [MMV020788]
percent_inh @ 5 uM [4]: 96% | EC50 [5]: 22.6 nM | EC50 [3]: 279 nM

COc1ccc(Br)cc1C1Nc2ccc3ccccc3c2C2=C1C(=O)CC(c1ccccc1)C2 (centres unmarked) [MMV020885]
percent_inh @ 5 uM [4]: 95% | EC50 [5]: 180 nM | EC50 [3]: 590 nM

Cc1ccc(-c2nc3ccccc3o2)cc1NCc1cc(Cc2ccccc2)ccc1O [MMV020912]
EC50 [9]: 1030 nM

CCC(=O)Nc1nnc(Cc2ccc(OC)c(OC)c2)s1 [MMV020942]
percent_inh @ 5 uM [1]: 47% | EC50 [3]: 910 nM

COc1cc(SC)ccc1C(=O)N1CCCC(C)C1 (centres unmarked) [MMV056726]
percent_inh @ 2 uM (2 uM, MMV Malaria Box data sheet (supplement mmc2.xls), ref MMV data sheet): 45% | EC50 [7]: 4000 nM | EC50 [8]: 9810 nM

CN(C)c1ccc(N=Cc2ccc(N3CCOCC3)cc2)cc1 [MMV073843]
EC50 [9]: 175 nM

CCOc1ccc(C2N(C)c3ccccc3N2C)cc1 [MMV075490]
percent_inh @ 5 uM [6]: 72% | EC50 [7]: 941 nM

COc1cc2c(cc1OC)C1=NNC(=O)C1=NC(C)(C)C2 [MMV084940]
EC50 [2]: 1040 nM | EC50 [10]: 1580 nM

COc1ccccc1N=C1C(=O)c2ccccc2C(O)=C1N1CCCCC1 [MMV085203]
percent_inh @ 5 uM [4]: 98% | EC50 [5]: 5.3 nM | EC50 [10]: 28 nM

CCOc1ccc(-n2cc(-c3ccccc3)c3c(SCc4cc(C)ccc4C)ncnc32)cc1 [MMV085471]
percent_inh @ 5 uM [1]: 97% | EC50 [2]: 1700 nM | EC50 [10]: 2010 nM

CCCCCC(=O)N1c2ccccc2N=C2CC(c3ccc(OC)c(OC)c3)CC(O)=C2C1c1ccc(C(F)(F)F)cc1 (centres unmarked) [MMV085583]
percent_inh @ 5 uM [4]: 100% | EC50 [5]: 237 nM | EC50 [10]: 107 nM

Cc1ccc(C(=O)c2oc3ccc4c(C)cc(=O)oc4c3c2C)cc1 [MMV086103]
EC50 [9]: 1030 nM

COc1cc(CNCCc2ccc(Cl)cc2)cc(OC)c1O [MMV128432]
EC50 [9]: 6890 nM

CC(C)(C)c1ccc(C(=O)Nc2nc3ccccc3s2)cc1 [MMV142383]
percent_inh @ 5 uM [6]: 81% | EC50 [8]: 15000 nM

COc1ccc2nc(C)cc(Nc3ccccc3O)c2c1 [MMV274073]
EC50 [7]: 686 nM

CCn1nc(-c2ccc(C(=O)OC)cc2)nc2c(=O)n(C)c(=O)nc1-2 [MMV306025]
EC50 [7]: 693 nM

CCOc1ccccc1CN1CCc2nc3cc(C(C)(C)C)nn3c(O)c2C1 [MMV396595]
EC50 [2]: 1010 nM

CCOc1c(Cl)cc(CNCC(O)c2ccccc2)cc1OC (centres unmarked) [MMV396632]
EC50 [2]: 1050 nM

CCOc1cc(CNC(C)C(O)c2ccccc2)cc(Cl)c1OCC (centres unmarked) [MMV396633]
EC50 [7]: 1240 nM

Cc1cc(N2CCCC2)nc(Nc2ccc(NC(=O)CCc3ccccc3)cc2)n1 [MMV396669]
EC50 [2]: 1070 nM

O=C(NCC(c1ccsc1)N1CCCCCC1)c1ccc(C(F)(F)F)cc1 (centres unmarked) [MMV396672]
EC50 [5]: 433 nM

O=C(CSc1nccn2nc(-c3ccccc3)cc12)Nc1cc(C(F)(F)F)ccc1Cl [MMV396678]
EC50 [5]: 218 nM

COc1ccc(-c2cc3c(SCC(=O)Nc4cc(C(F)(F)F)ccc4Cl)nccn3n2)cc1 [MMV396679]
EC50 [5]: 89.9 nM

Cc1ccc(-c2cc3c(SCC(=O)Nc4cc(C(F)(F)F)ccc4Cl)nccn3n2)cc1 [MMV396680]
EC50 [5]: 92.8 nM

Cc1cc(NC(=O)c2cccc(C(F)(F)F)c2)n(-c2nc(-c3ccc4c(c3)OCO4)cs2)n1 [MMV396681]
EC50 [7]: 959 nM

C[n+]1c2ccccc2nc2ccc(NCCO)cc21 [MMV396693]
EC50 [5]: 296 nM

CCN(CC)CCNc1ncnc2c1[nH]c1ccc(Cl)cc12 [MMV396703]
EC50 [5]: 406 nM

CN1CCN(c2ncnc3c2[nH]c2ccc(Cl)cc23)CC1 [MMV396704]
EC50 [2]: 1190 nM

COc1cccc(Cn2c(Oc3ccccc3)nc3c2c(=O)n(C)c(=O)n3C)c1 [MMV396705]
EC50 [2]: 1390 nM

CC1(c2ccccc2)Nc2ccccc2-c2nc3ccccc3n21 (centres unmarked) [MMV396715]
EC50 [2]: 1730 nM

COc1cccc(C2(C)Nc3ccccc3-c3nc4ccccc4n32)c1 (centres unmarked) [MMV396719]
EC50 [7]: 1150 nM

OC(CNCC1CCCO1)Cn1c2ccc(Cl)cc2c2cc(Cl)ccc21 (centres unmarked) [MMV396736]
EC50 [7]: 1060 nM
